Assay results published in US20260241062A1, “WATER-DISPERSED PRESSURE-SENSITIVE ADHESIVE COMPOSITION AND PRESSURE-SENSITIVE ADHESIVE SHEET” (NITTO DENKO CORPORATION, priority 2023, published 2026).
Read-outs that look alike come from different tables or passages of the source.

Assays:
[1] = at 20° C.; cited from earlier work
[2] = acid dissociation constant (pKa) of the monomers
[3] = acid dissociation constant of each component

| pKa [2] | Molecule | Water solubility [1] | pKa [2, 3] |
| --- | --- | --- | --- |
|  | C=C(C)C(=O)OC [MMA, methyl methacrylate] | 1.6 g/100 mL |  |
| -0.34 | C=CN1CCCC1=O [NVP, N-vinylpyrrolidone] | Miscible |  |
|  | C=CC(=O)NCCCN(C)C [DMAPAA, dimethylaminopropylacrylamide] | Soluble | 14.88 |
|  | C=CC(=O)N(CC)CC [DEAA, diethylacrylamide] | Soluble | −0.77 |
| -1.08 | C=CC(=O)N1CCOCC1 [ACMO, N-acryloylmorpholine] |  |  |
| 4.66 | C=C(C)C(=O)O [MAA, methacrylic acid] | 9.7 g/100 mL |  |
|  | 2-acryloyloxyethyl succinic acid [HOA-MS] |  | 4.35 |

| Molecule | pKa [2] | Water solubility [1] | pKa [2, 3] |
| --- | --- | --- | --- |
| C=CC(=O)NC(C)C [NIPAM, N-isopropylacrylamide] | 14.8 | <0.1 g/100 mL |  |
